Format in all cases: cell-based, rabbit (Japan white, male)
The subject of assay [1] is platelet activating factor (PAF)-induced rabbit platelet aggregation in plasma. In words: PAF-induced platelet aggregation in rabbit platelet rich plasma. The method, then: (§1) Method: Nine volumes of blood were drawn from the central ear artery of male rabbit (Japan white, 3 kg) directly into plastic syringe containing 1 volume of 3.8% sodium citrate. The blood was centrifuged at 270×g for 10 minutes at room temperature and the platelet rich plasma (PRP) was removed. The pellet was further centrifuged at 1,100×g for 15 minutes. The supernatant was used as platelet poor plasma (PPP). The platelet concentration was adjusted to 5×10^5 cells/μl with PPP. Platelet aggregation was measured by the method of G. V. R. Born and M. J. Cross [Journal of Physiology, 168, 178-195 (1963)] using a HEMA TRACER (Nikou Bio Science, Japan). Varying concentration of compounds were added to the PRP 2 minutes prior to PAF (10^-8 M). The extent of platelet aggregation was determined by the maximum change of light transmission, assigning the transmission of unstimulated PRP to be 0% and that of PPP to be as 100%. Percent inhibition with compound was calculated by dividing the percent aggregation in the presence of compound by that in the control, and then the IC50 values were calculated.

Assay [2] has as its system platelet aggregation induced by ADP. Kind of assay: platelet aggregation induced by ADP. The following applies: ADP 3×10^-6 M; data not shown. Here is the method: as §1, with “Varying concentration of compounds were added to the PRP 2 minutes prior to PAF (10^-8 M).” left out
For assay [3], the system named is platelet aggregation induced by arachidonic acid. Kind of assay: platelet aggregation induced by arachidonic acid. The following applies: arachidonic acid 1×10^-4 M; data not shown. Here is the method: as §1, with “Varying concentration of compounds were added to the PRP 2 minutes prior to PAF (10^-8 M).” left out
Assay [4] concerns platelet aggregation induced by collagen. In words: platelet aggregation induced by collagen. As to conditions: collagen 10 μg/ml; data not shown. The method, then: as §1, with “Varying concentration of compounds were added to the PRP 2 minutes prior to PAF (10^-8 M).” left out
[5] abbreviates: Oryctolagus cuniculus, Platelet, Table 1, PAF 10^-8 M, compound added 2 minutes prior to PAF, rabbit PRP, read-out: IC50.
[6] abbreviates: Oryctolagus cuniculus, Platelet.
Where [7] appears, read: Oryctolagus cuniculus, Platelet, PAF 10^-8 M, compound added 2 minutes prior to PAF, rabbit PRP, read-out: IC50 values.

The values below come from patent US4987132A, “Saturated heterocyclic carboxamide derivatives” (Yamanouchi Pharmaceutical Co., Ltd., priority 1987, dated 1991).

Structures can show the parent of a compound that is named as a salt. Where two headings read alike, the source gives them in different places.

As a reminder, the IC50 is the concentration that inhibits the measured activity by half. Turning to `Cc1ccc(CNC(=O)C2CSC(c3cccnc3)N2)cc1` (stereo not shown) [Example 20, N-(p-Methylbenzyl)-2-(3-pyridyl)thiazolidine-4-carboxamide dihydrochloride], in assay [1] (setting [5]), the IC50 amounted to 800 nM.

Take `CN(Cc1ccccc1)C(=O)C1CSC(c2cccnc2)N1` (stereo not shown) [Example 22, N-benzyl-N-methyl-2-(3-pyridyl)thiazolidine-4-carboxamide dihydrochloride]: the IC50 in assay [1] (setting [5]) stood at 790 nM.

Regarding `O=C(NCc1ccc(OCCCCc2ccccc2)cc1)C1CSC(c2cccnc2)N1` (stereo not shown) [Example 23, N-2-(3-pyridyl)thiazolidine-4-carboxamide dihydrochloride], the IC50 in assay [1] (setting [5]) worked out at 430 nM.

For `CCCCCCCOc1ccc(CNC(=O)C2CSC(c3cccnc3)N2)cc1` (stereo not shown) [Example 24, N-(p-Heptyloxybenzyl)-2-(3-pyridyl)thiazolidine-4-carboxamide dihydrochloride], in assay [1] (setting [5]), the IC50 was 250 nM.

Turning to `O=C(C1CSC(c2cccnc2)N1)N1CCN(c2ccccc2)CC1` (stereo not shown) [Example 32, trihydrochloride], the 50% inhibitory concentration (IC50) in assay [1] (setting [5]) was 490 nM.

As to `O=C(NC1CCCCC1)C1CSC(c2cccnc2)N1` (stereo not shown) [Example 34, N-cyclohexyl-2-(3-pyridyl)thiazolidine-4-carboxamide dihydrochloride], inhibition in assay [1] (setting [6]) was half-maximal at 950 nM (IC50).

Turning to `O=C(C1CSC(c2cccnc2)N1)N1CCC(Cc2ccccc2)CC1` (stereo not shown) [Example 36, 4-benzyl-1-[2-(3-pyridyl)thiazolidin-4-ylcarbonyl]piperidine dihydrochloride], the 50% inhibitory concentration (IC50) in assay [1] (setting [5]) was found to be 860 nM.

Take `O=C(C1CSC(c2cccnc2)N1)N1CCC(c2ccccc2)CC1` (stereo not shown) [Example 46, 4-phenyl-1-[2-(3-pyridyl)thiazolidin-4-ylcarbonyl]piperidine dihydrochloride]: in assay [1] (setting [5]), the IC50 came to 650 nM.

Regarding `O=C(C1CSC(c2cccnc2)N1)N1CCN(Cc2ccccc2)CC1` (stereo not shown) [Example 48, 1-benzyl-4-[2(3-pyridyl)thiazolidin-4-ylcarbonyl]piperazine trihydrochloride], the IC50 in assay [1] (setting [5]) was determined as 450 nM.

As for `Cl.Cl.Cl.O=C(C1CSC(c2cccnc2)N1)N1CCN(CCCCc2ccccc2)CC1` (stereo not shown) [Example 49, 1-(4-phenylbutyl)-4-[2-(3-pyridyl)thiazolidin-4-ylcarbonyl]piperazine trihydrochloride], the IC50 in assay [1] (setting [7]) was 28 to 85 nM; in assay [1] (setting [5]), 85 nM. In assay [2], the “inhibition of platelet aggregation induced by ADP” value (shortened to “inhibition … by ADP”) is listed as “did not inhibit”. Also, in assay [3], the “inhibition of platelet aggregation induced by arachidonic acid” value (shortened to “inhibition … by arachidonic acid”) is given as “did not inhibit”. The “inhibition of platelet aggregation induced by collagen” value (“inhibition … by collagen” below) in assay [4] is “did not inhibit”.

Turning to `O=C(NNc1ccccc1)C1CSC(c2cccnc2)N1` (stereo not shown) [Example 50, N'-phenyl-2-(3-pyridyl)thiazolidine-4-carbohydrazide], the concentration for half-maximal inhibition (IC50) in assay [1] (setting [5]) worked out at 800 nM.

As for `CC(C)CCOc1ccc(CNC(=O)C2CSC(c3cccnc3)N2)cc1` (stereo not shown) [Example 54, N-[p-(3-methylbutoxy)benzyl]-2-(3-pyridyl)thiazolidine-4-carboxamide dihydrochloride], the half-maximal inhibitory concentration (IC50) in assay [1] (setting [5]) turned out to be 240 nM.

Turning to `CC(C)COc1ccc(CNC(=O)C2CSC(c3cccnc3)N2)cc1` (stereo not shown) [Example 55], the half-maximal inhibitory concentration (IC50) in assay [1] (setting [5]) came out at 160 nM.

As for `CC(C)CCCOc1ccc(CNC(=O)C2CSC(c3cccnc3)N2)cc1` (stereo not shown) [Example 56], in assay [1] (setting [5]), the half-inhibitory concentration (IC50) was 120 nM.

In the case of `O=C(NCc1ccc(OCC2CCCC2)cc1)C1CSC(c2cccnc2)N1` (stereo not shown) [Example 57], the IC50 in assay [1] (setting [5]) stood at 200 nM.

Consider `O=C(NCc1ccc(OCCCc2ccccc2)cc1)C1CSC(c2cccnc2)N1` (stereo not shown) [Example 58], for which the IC50 in assay [1] (setting [5]) was found to be 390 nM.

Consider `COc1cc(CNC(=O)C2CSC(c3cccnc3)N2)ccc1OCCCCc1ccccc1` (stereo not shown) [Example 59], for which the IC50 in assay [1] (setting [5]) stood at 210 nM.

On to `O=C(NCc1ccc(OCCCOc2ccccc2)cc1)C1CSC(c2cccnc2)N1` (stereo not shown) [Example 60], for which the IC50 in assay [1] (setting [5]) was determined as 760 nM.

For the molecule `CCCCc1ccc(CNC(=O)C2CSC(c3cccnc3)N2)cc1` (stereo not shown) [Example 61], in assay [1] (setting [5]), the IC50 is 770 nM.

Take `Cc1ccc(CN2CCN(C(=O)C3CSC(c4cccnc4)N3)CC2)cc1` (stereo not shown) [Example 63]: in assay [1] (setting [5]), the IC50 came out at 500 nM.

For `O=C(C1CSC(c2cccnc2)N1)N1CCN(CC=Cc2ccccc2)CC1` (stereo not shown) [Example 64], the concentration for half-maximal inhibition (IC50) in assay [1] (setting [5]) turned out to be 390 nM.

Turning to `O=C(C1CSC(c2cccnc2)N1)N1CCN(CCCOc2ccccc2)CC1` (stereo not shown) [Example 65], the IC50 in assay [1] (setting [5]) was found to be 120 nM.

Consider `O=C(CN1CCN(C(=O)C2CSC(c3cccnc3)N2)CC1)c1ccccc1` (stereo not shown) [Example 66], for which, in assay [1] (setting [5]), the IC50 worked out at 430 nM.

Take `O=C(CCCN1CCN(C(=O)C2CSC(c3cccnc3)N2)CC1)c1ccc(Br)cc1` (stereo not shown) [Example 67]: the values for the IC50 in assay [1] (setting [7]) and in assay [1] (setting [5]) were 28 to 85 nM and 71 nM, respectively. Moreover, the “inhibition … by ADP” value in assay [2] is on record as “did not inhibit”. In addition, the “inhibition … by arachidonic acid” value in assay [3] is “did not inhibit”. Further, the “inhibition … by collagen” value in assay [4] is “did not inhibit”.

Turning to `CCCCCCCN1CCN(C(=O)C2CSC(c3cccnc3)N2)CC1` (stereo not shown) [Example 71], the half-inhibitory concentration (IC50) was 28 to 85 nM in assay [1] (setting [7]) and 64 nM in assay [1] (setting [5]). Also, in assay [2], the “inhibition … by ADP” value is listed as “did not inhibit”. Further, the “inhibition … by arachidonic acid” value in assay [3] is reported as “did not inhibit”. Moreover, in assay [4], the “inhibition … by collagen” value is recorded as “did not inhibit”.

In the case of `O=C(C1CSC(c2cccnc2)N1)N1CCC(CCc2ccccc2)CC1` (stereo not shown) [Example 72], the 50% inhibitory concentration (IC50) in assay [1] (setting [5]) came to 900 nM.

Regarding `O=C(C1CSC(c2cccnc2)N1)N1CCCN(Cc2ccccc2)CC1` (stereo not shown) [Example 76], the concentration for half-maximal inhibition (IC50) in assay [1] (setting [5]) stood at 900 nM.

In the case of `CCCCCCCN1CCCN(C(=O)C2CSC(c3cccnc3)N2)CC1` (stereo not shown) [Example 80], the 50% inhibitory concentration (IC50) in assay [1] (setting [5]) came out at 340 nM.

As to `CCCCCCCCCCN1CCN(C(=O)C2CSC(c3cccnc3)N2)CC1` (stereo not shown) [Example 81, 1-decyl-4-[2-(3-pyridyl)thiazolidin-4-ylcarbonyl]piperazine trihydrochloride], the IC50 in assay [1] (setting [7]) is 28 to 85 nM; in assay [1] (setting [5]), 28 nM. For the same molecule, in assay [2], the “inhibition … by ADP” value is recorded as “did not inhibit”. In addition, in assay [3], the “inhibition … by arachidonic acid” value is recorded as “did not inhibit”. Moreover, the “inhibition … by collagen” value in assay [4] was “did not inhibit”.

With `O=C(C1CSC(c2cccnc2)N1)N1CCN(CCc2ccccc2)CC1` (stereo not shown) [Example 84], the IC50 in assay [1] (setting [5]) came to 220 nM.

For the molecule `O=C(C1CSC(c2cccnc2)N1)N1CCN(CCCCCc2ccccc2)CC1` (stereo not shown) [Example 85], the figures for the IC50 in assay [1] (setting [7]) and in assay [1] (setting [5]) were 28 to 85 nM and 72 nM, respectively. Further, the “inhibition … by ADP” value in assay [2] is on record as “did not inhibit”. Also, the “inhibition … by arachidonic acid” value in assay [3] is recorded as “did not inhibit”. For the same molecule, the “inhibition … by collagen” value in assay [4] was “did not inhibit”.

`CN(Cc1ccc(OCCCc2ccccc2)cc1)C(=O)C1CSC(c2cccnc2)N1` (stereo not shown) [Example 89]: the half-inhibitory concentration (IC50) in assay [1] (setting [5]) came out at 400 nM.

With `CCCCCCN1CCN(C(=O)C2CSC(c3cccnc3)N2)CC1` (stereo not shown) [Example 92], the IC50 in assay [1] (setting [5]) is 260 nM.

For the molecule `CC(C)CCCN1CCN(C(=O)C2CSC(c3cccnc3)N2)CC1` (stereo not shown) [Example 93], in assay [1] (setting [5]), the IC50 amounted to 630 nM.

`Cc1ncccc1C1NC(C(=O)N2CCN(CCCc3ccccc3)CC2)CS1` (stereo not shown) [Example 97]: the 50% inhibitory concentration (IC50) in assay [1] (setting [5]) worked out at 120 nM.

Regarding `CCCCCCN1CCN(C(=O)C2CSC(c3cccnc3)N2)CC1` (stereo not shown) [Example 117], the IC50 in assay [1] (Table 1, PAF 10^-8 M, compound added 2 minutes prior to PAF, rabbit PRP, read-out: IC50) turned out to be 260 nM.

Consider `COc1ccc(CCCN2CCN(C(=O)C3CSC(c4cccnc4)N3)CC2)cc1` (stereo not shown) [Example 120], for which, in assay [1] (setting [5]), the IC50 stood at 170 nM.

Consider `O=C(C1CSC(c2cccnc2)N1)N1CCN(CCCc2ccc(O)cc2)CC1` (stereo not shown) [Example 121], for which, in assay [1] (setting [5]), the IC50 came to 190 nM.

Take `O=C(C1CSC(c2cccnc2)N1)N1CCN(CCCc2ccc(Cl)cc2)CC1` (stereo not shown) [Example 123]: in assay [1] (setting [5]), the IC50 turned out to be 180 nM.

With `O=C(C1CSC(c2cccnc2)N1)N1CCN(CCCc2ccc(F)cc2)CC1` (stereo not shown) [Example 124], in assay [1] (setting [5]), the half-inhibitory concentration (IC50) came to 180 nM.

In assay [1] (setting [6]), `O=C(C1CSC(c2cccnc2)N1)N1CCN(CCCc2ccc([N+](=O)[O-])cc2[N+](=O)[O-])CC1` (stereo not shown) [Example 125] showed an IC50 of 450 nM.

As for `Nc1ccc(CCCN2CCN(C(=O)C3CSC(c4cccnc4)N3)CC2)cc1` (stereo not shown) [Example 126], the IC50 in assay [1] (setting [5]) was 180 nM.

`Cc1ccccc1CCCN1CCN(C(=O)C2CSC(c3cccnc3)N2)CC1` (stereo not shown) [Example 127]: the IC50 in assay [1] (setting [5]) worked out at 460 nM.

For the molecule `N#Cc1ccc(CCCN2CCN(C(=O)C3CSC(c4cccnc4)N3)CC2)cc1` (stereo not shown) [Example 128], in assay [1] (setting [5]), the concentration for half-maximal inhibition (IC50) turned out to be 970 nM.
